Usually IC50 stands for the midpoint of a concentration-inhibition curve.

Data set [1] deals with HEK-Blue TGFβ cell. The data set can be described thus: HEK-Blue TGFβ cellular reporter gene assay (SEAP readout). The format is cell-based. The settings on record: HEK-Blue TGFβ cells stimulated with TGF-β, 22-23 h incubation, SEAP read at 630 nm. In a few lines: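 Cells (2.5×10^5 cells/ml suspension) in DMEM with 0.5% heat-inactivated FBS stimulated with TGF-β (6 ng/ml working solution) plus compound at eight 3-fold dilutions for 22-23 h at 37° C. Supernatant SEAP measured with QUANTI-Blue after 30-40 min, absorbance 630 nm; percent inhibition calculated.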

Data set [2] can be described thus: Tissue exposure (liver and heart) in Balb/c mouse after PO dosing, general PK protocol. The settings on record: PO (intragastric) 10 mg/Kg, liver and heart tissue 0.5-24 h, LC-MS/MS. The format is in vivo. As to the method:
Comparing AUCliver/AUCheart ratio of selected Examples with clinic compounds Galunisertib and LY3200882. Tissue exposure was measured in Balb/c mouse with PO dosing at 10 mpk. […] See Stauber, et al., J. Clin. Pract., 2014, 4(3), 196.
The Balb/c mice were fasted overnight with free access to drinking water prior to treatment. Compounds were formulated in 0.5% CMC/0.5% Tween 80 with or without 1 eq. of NaOH, and administrated intragastrically at 10 mg/Kg. The liver and heart tissues of mice were collected at time points 0.5, 1, 3, 5, 7, 24 h (2 mice per time point) post dose by first sacrificing the animal by C02 inhalation. After flushing with ice saline and removal of excess water on its surface, the liver and heart tissues were weighed and homogenized in 1:5 volumes (w/v) of water with 20% methanol. Tissue samples were kept at −40˜−20° C. prior to analysis. Concentrations of compounds in the liver and hearts were determined using an established liquid chromatography-tandem mass spectrometry (LC-MS/MS) method. Tissue concentration-time data were processed by linear regression analysis. All pharmacokinetic parameters were calculated using non-compartment model of Pharsight Phoenix 8.0.

For data set [3] the following is noted: Stauber, et al., J. Clin. Pract., 2014, 4(3), 196; cited from earlier work.

In turn, `Cc1cc(Oc2ccnc(Nc3cccc(CCC(=O)O)c3)c2)c(-c2ccccn2)nc1C` [Example 1, 3-(3-((4-((5,6-dimethyl-[2,2′-bipyridin]-3-yl)oxy)pyridin-2-yl)amino)phenyl)propanoic acid] gave an IC50 in data set [1] of 180 nM. This compound also showed an AUCliver/AUCheart in data set [2] of 13.2.
For `Cc1cc(Oc2ccnc(Nc3cccc(CCc4nn[nH]n4)c3)c2)c(-c2ccccn2)nc1C` [Example 12, N-(3-(2-(2H-tetrazol-5-yl)ethyl)phenyl)-4-((5,6-dimethyl-[2,2′-bipyridin]-3-yl)oxy)pyridin-2-amine] the same measures were 130 nM and 60.9.
For the compound `Cc1cc(Oc2ccnc(Nc3cccc(Cc4nnn[nH]4)c3)c2)c(-c2ccccn2)nc1C` [Example 16, N-(3-((1H-tetrazol-5-yl)methyl)phenyl)-4-((5,6-dimethyl-[2,2′-bipyridin]-3-yl)oxy)pyridin-2-amine], in data set [1], the midpoint of inhibition, the IC50, lay at 390 nM. In data set [2], this compound returned an AUCliver/AUCheart of 142.
As for `Cc1ccc(Oc2ccnc(Nc3cccc(CCc4nn[nH]n4)c3)c2)c(C)n1` [Example 44, N-(3-(2-(2H-tetrazol-5-yl)ethyl)phenyl)-4-((2,6-dimethylpyridin-3-yl)oxy)pyridin-2-amine], the IC50 in data set [1] is 120 nM. In data set [2], this compound returned an AUCliver/AUCheart of 29.9.
In data set [1], `Cc1ccc(Oc2ccnc(Nc3cccc(CCc4nn[nH]n4)c3)c2)c(-c2ccccc2)n1` [Example 52, N-(3-(2-(2H-tetrazol-5-yl)ethyl)phenyl)-4-((6-methyl-2-phenylpyridin-3-yl)oxy)pyridin-2-amine] yielded an IC50 of 37 nM. In data set [2], this compound gave an AUCliver/AUCheart of 70.6.
`Cc1ccc(Oc2ccnc(Nc3cccc(C(C)(C)C(=O)O)c3)c2)c(-c2ccccc2)n1` [Example 70, 2-methyl-2-(3-((4-((6-methyl-2-phenylpyridin-3-yl)oxy)pyridin-2-yl)amino)phenyl)propanoic acid] yielded a concentration for half-maximal inhibition (IC50) in data set [1] of 7 nM. Also, in data set [2], the AUCliver/AUCheart came out at 67.7.
In turn, `CC(C)(C(=O)O)c1cccc(Nc2cc(Oc3cn(C4CC4)nc3C3CCOCC3)ccn2)c1` [Example 74] gave an IC50 in data set [1] of 230 nM. This compound also registered an AUCliver/AUCheart in data set [2] of 266.
In the case of `CCc1ccc(Oc2ccnc(Nc3cccc(C(C)(C)C(=O)O)c3)c2)c(C)n1` [Example 81, 2-(3-((4-((6-ethyl-2-methylpyridin-3-yl)oxy)pyridin-2-yl)amino)phenyl)-2-methylpropanoic acid], the IC50 in data set [1] amounted to 31 nM. Besides, the AUCliver/AUCheart in data set [2] came to 124.
For `CCc1ccc(Oc2ccnc(Nc3cccc(C(C)(C)C(=O)O)c3)c2)c(-c2ccccc2)n1` [Example 104], the half-inhibitory concentration (IC50) in data set [1] was determined as 22 nM. Besides, the AUCliver/AUCheart in data set [2] is 27.8.
`CCc1ccc(Oc2ccnc(Nc3cccc(CCc4nn[nH]n4)c3)c2)c(-c2ccccn2)n1` [Example 175, N-(3-(2-(2H-tetrazol-5-yl)ethyl)phenyl)-4-((6-ethyl-[2,2′-bipyridin]-3-yl)oxy)pyridin-2-amine] showed a half-maximal inhibitory concentration (IC50) in data set [1] of 44 nM. For the same compound, the AUCliver/AUCheart in data set [2] was 183.
Take `Cc1cc(Cc2nn[nH]n2)cc(Nc2cc(Oc3cn(C4CC4)nc3-c3ccccc3)ccn2)c1` [Example 199]: the IC50 in data set [1] turned out to be 60 nM.
`c1ccc(-c2nn(C3CCC3)cc2Oc2ccnc(Nc3cccc(CCc4nn[nH]n4)c3)c2)cc1` [Example 200] yielded an IC50 in data set [1] of 86 nM.
With `c1ccc(-c2nn(C3CCC3)cc2Oc2ccnc(Nc3cccc(Cc4nn[nH]n4)c3)c2)cc1` [Example 201], in data set [1], it took 89 nM to reach half-maximal inhibition (IC50).
On to `Cc1cc(Cc2nn[nH]n2)cc(Nc2cc(Oc3cn(C4CCC4)nc3-c3ccccc3)ccn2)c1` [Example 202], for which the IC50 in data set [1] worked out at 120 nM.
Take `Cc1cccc(-c2nn3c(c2-c2ccnc4ccc(C(N)=O)cc24)CCC3)n1` [Galunisertib, galunisertib, reference compound]: the AUCliver/AUCheart in data set [2] turned out to be 2.9. Besides, in data set [3], the Cardiac toxicity result is reported as “limiting factor”.
The compound `CC(C)(O)c1cc(Nc2cc(Oc3cn(C4CC4)nc3C3CCOCC3)ccn2)ccn1` [LY3200882, reference compound] returned an AUCliver/AUCheart in data set [2] of 1.3. Moreover, the Cardiac toxicity result in data set [3] is “cardiac toxicity was identified as the most relevant”.

The values are drawn from patent US20220054465A1, “(PYRIDIN-2-YL)AMINE DERIVATIVES AS TGF-BETA R1 (ALK5) INHIBITORS FOR THE TREATMENT OF CANCER” (Nexys Therapeutics, Inc., priority 2018, published 2022).
